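Compound exposure: 48 hours, 5 concentrations, 96-well plates. At the GI50, growth is halved.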 The source made the active and inactive calls. Rule as the data show it: active = GI50 up to about 1.1 µM and inactive = higher.
Columns and labels:
Assay in all cases: NCI anticancer screen, dose series, 48 h
SNB-75 = system: SNB-75
A549 = system: A549
T47D = system: T47D
NCI-H460 = system: NCI-H460
HL-60 = system: HL-60
HT-29 = system: HT-29
HCT-116 = system: HCT-116
MCF7 = system: MCF7
SR = system: SR
U-251 = system: U-251
HCC 2998 = system: HCC 2998
UACC-257 = system: UACC-257
MDA-N = system: MDA-N
LOX IMVI = system: LOX IMVI
HCT-15 = system: HCT-15
SF-539 = system: SF-539
MDA-MB-435 = system: MDA-MB-435
ACHN = system: ACHN
UO-31 = system: UO-31
SK-MEL-5 = system: SK-MEL-5

Structure (SMILES) | GI50 (SNB-75) | GI50 (A549) | GI50 (T47D) | GI50 (NCI-H460) | GI50 (HL-60) | GI50 (HT-29) | GI50 (HCT-116) | GI50 (MCF7) | GI50 (SR) | GI50 (U-251) | GI50 (HCC 2998) | GI50 (UACC-257) | GI50 (MDA-N) | GI50 (LOX IMVI) | GI50 (HCT-15) [µM] | GI50 (SF-539) | GI50 (MDA-MB-435) | GI50 (ACHN) | GI50 (UO-31) | GI50 (SK-MEL-5)
O=C1NC2c3c(I)sc(I)c3C(O)C2O1 (stereo not drawn) | > 100 µM (inactive) | > 100 µM (inactive) | > 100 µM (inactive) | > 100 µM (inactive) | > 100 µM (inactive) | > 100 µM (inactive) | > 100 µM (inactive) | > 100 µM (inactive) | > 100 µM (inactive) | > 100 µM (inactive) | > 100 µM (inactive) | > 100 µM (inactive) | > 100 µM (inactive) | > 100 µM (inactive) | > 100 | > 100 µM (inactive) | > 100 µM (inactive) | > 100 µM (inactive) | > 100 µM (inactive) | 
COC(=O)c1ccccc1C#CCCCOS(C)(=O)=O |  | > 10 µM (inactive) | > 10 µM (inactive) | > 10 µM (inactive) | > 10 µM (inactive) | > 10 µM (inactive) | > 10 µM (inactive) | > 10 µM (inactive) | > 10 µM (inactive) | > 10 µM (inactive) | > 10 µM (inactive) | > 10 µM (inactive) | > 10 µM (inactive) | > 10 µM (inactive) | > 10 | > 10 µM (inactive) | > 10 µM (inactive) | > 10 µM (inactive) | > 10 µM (inactive) | > 10 µM (inactive)
O=C(/C=C/c1ccccc1)Nc1ccccc1SCCCCl | 17.7 µM (inactive) | 25 µM (inactive) | 7.52 µM (inactive) | 10.2 µM (inactive) | 3.8 µM (inactive) | 7.94 µM (inactive) | 8.91 µM (inactive) | 4.4 µM (inactive) | 9.38 µM (inactive) | 8.93 µM (inactive) | 21.6 µM (inactive) | 18.2 µM (inactive) | 6.38 µM (inactive) | 8.81 µM (inactive) | 13.4 | 8.57 µM (inactive) | 4.95 µM (inactive) | 20 µM (inactive) | 7.48 µM (inactive) | 19.3 µM (inactive)
N=C(N)Nc1ccc(CC(N)NCC(=O)O)cc1 (stereo not drawn) | > 25 µM (inactive) | > 25 µM (inactive) | > 25 µM (inactive) |  | > 25 µM (inactive) | > 25 µM (inactive) | > 25 µM (inactive) | > 25 µM (inactive) | 20 µM (inactive) | > 25 µM (inactive) | > 25 µM (inactive) | > 25 µM (inactive) | > 25 µM (inactive) | > 25 µM (inactive) | > 25 |  | > 25 µM (inactive) | > 25 µM (inactive) | > 25 µM (inactive) | > 25 µM (inactive)
COc1ccc(/C=c2\s/c(=C3/SC(=S)N(c4ccccc4)C3=O)n(-c3ccccc3)c2=O)cc1 | 4.61 µM (inactive) | > 100 µM (inactive) | > 100 µM (inactive) | 12.8 µM (inactive) | > 100 µM (inactive) | > 100 µM (inactive) | > 100 µM (inactive) | 0.264 µM (active) | 15.3 µM (inactive) | 19.6 µM (inactive) | > 100 µM (inactive) |  | > 100 µM (inactive) | > 100 µM (inactive) | > 100 | 32.8 µM (inactive) | > 100 µM (inactive) | 13.6 µM (inactive) | 73.1 µM (inactive) | > 100 µM (inactive)
C/C(=N/NC(=S)Nc1ccccc1Cl)c1cccc(/C(C)=N\NC(=S)Nc2ccccc2Cl)n1 | > 100 µM (inactive) | 29.6 µM (inactive) | > 100 µM (inactive) | 5.47 µM (inactive) | > 100 µM (inactive) | > 100 µM (inactive) | 16.1 µM (inactive) | 15.1 µM (inactive) | 5.66 µM (inactive) | 26.7 µM (inactive) | > 100 µM (inactive) | 67 µM (inactive) | > 100 µM (inactive) | 61.8 µM (inactive) | 15 | 16.6 µM (inactive) | > 100 µM (inactive) | 55.5 µM (inactive) | 44 µM (inactive) | 12.4 µM (inactive)
Br[C@@H]1[C@H]2c3nc4ccccc4nc3[C@@H]1C[C@H]2Br |  | 58.9 µM (inactive) | 36.8 µM (inactive) | 64.6 µM (inactive) | 32.5 µM (inactive) | 58.6 µM (inactive) | 59.7 µM (inactive) | 81.7 µM (inactive) | 48.9 µM (inactive) | 69.2 µM (inactive) | > 100 µM (inactive) | 83.6 µM (inactive) | > 100 µM (inactive) | > 100 µM (inactive) | 61.5 |  | 91.2 µM (inactive) | > 100 µM (inactive) | 41.4 µM (inactive) | 26.5 µM (inactive)

Reference: ChEMBL document CHEMBL1201862, “PubChem BioAssay data set” (2004)
